US20230002324A1, “NAPHTHOQUINONE DERIVATIVES FOR TREATMENT OF OXIDATIVE STRESS DISORDERS” (PTC THERAPEUTICS, INC., priority 2019, published 2023)

These compounds were tested on normal human fibroblasts (NHF, GM21811) (assay: NHF GM21811 RSL3 challenge cell survival (rescue) assay). Settings: Fibroblast, NHF cells, RSL3 2 micromolar, 48 h, Cell Titer Glo, read-out: NHF GM21811 RSL3 Survival EC50.
Type: cell-based
Excerpt: (§1) In neuronal cells excess extracellular glutamate inhibits the cystine/glutamate antiporter leading to intracellular cysteine depletion, GSH depletion, reactive oxygen species (ROS) production and cell death, a phenomenon termed oxidative glutamate toxicity, oxytosis, or ferroptosis. […] Q7 cells (ST HDH Q7/7; immortalized mouse striatal cells) challenged with cystine-free media or the selective, irreversible GPX4 inhibitor, methyl (1S,3R)-2-(2-chloroacetyl)-1-(4-(methoxycarbonyl)phenyl)-2,3,4,9-tetrahydro-1H-pyrido[3,4-b]indole-3-carboxylate (hereafter referred to as RSL3), recapitulate this phenotype, as do normal human fibroblasts (NHF) challenged with RSL3. An initial screen was performed to identify compounds effective in rescuing Q7 and/or NHF cells from death resulting from cystine deprivation or RSL3 challenge. This method is further described in Yonezawa et al., J. Neurochem 67, 566-573 (1996), Li et al., J Neurosci., 23, 5816-5826 (2003), Yang and Stockwell, Chem Biol., 15: 234-45 (2008), and Yang et al., Cell 156, 317-331 (2014). See also Hinman A, Holst C R, Latham J C, et al. Vitamin E hydroquinone is an endogenous regulator of ferroptosis via redox control of 15-lipoxygenase. PLoS One. 2018; 13(8):e0201369. Published 2018 Aug. 15. doi:10.1371/journal.pone.0201369; and Kahn-Kirby A H, Amagata A, Maeder C I, et al. Targeting ferroptosis: A novel therapeutic strategy for the treatment of mitochondrial disease-related epilepsy. PLoS One. 2019; 14(3):e0214250. Published 2019 Mar. 28. doi:10.1371/journal.pone.0214250.
(§2) DMEM (Catalog no. 11995-040), DMEM without Cystine (Catalog no. 21013-024), DMEM without Glucose (Catalog A1443001), PBS (Phosphate buffered saline), Penicillin-streptomycin mix, L-Glutamine, Glucose, Phenol Red, and Pyruvate were purchased from ThermoFisher Scientific (Gibco). Fetal Bovine Serum was obtained from Mediatech, Inc., or Sigma Aldrich. Mouse striatum derived ST HDH Q7/7 (Q7) and normal human skin fibroblast (NHF, product number GM21811) cells were obtained from the Coriell Institute. Methionine and Vitamin K2 were purchased from Sigma Aldrich. RSL3 was synthesized as previously described (see e.g. US Patent Publication US2010/0081654). Cell Titer Glo 2.0 was purchased from Promega. Q7 cell culture medium (Q7 growth medium) was made by combining 50 mL Fetal Bovine Serum, 100 U/mL penicillin, and 100 microgram/mL streptomycin; DMEM was added to make the volume up to 500 mL. Assay medium for the Cystine Deprivation assay was prepared by combining 50 mL Fetal Bovine Serum, 100 U/mL penicillin, 100 microgram/mL streptomycin, 4 mM L-Glutamine, 1 mM Pyruvate and 30 mg/L Methionine; DMEM without Cystine was added to make the volume up to 500 mL. NHF cell culture medium (NHF growth medium) was made by combining 50 mL Fetal Bovine Serum, 100 U/mL penicillin, 100 microgram/mL streptomycin, 2.8 mL 20% Glucose solution (final concentration 6 mM), L-glutamine (final concentration 2 mM), phenol red (final concentration 15 mg/L); DMEM without Glucose was added to make the volume up to 500 mL. Assay medium for the RSL3 challenge assay was identical to Growth medium. While not in use during the course of the experiments, these solutions were stored at 4° C. The cells were grown in 150-cm^2 tissue culture-treated flasks. Every third or fourth day, the cells were sub-cultured by trypsinization and re-seeded at a cell density of 600,000 (Q7) or 300,000 (NHF) cells per flask.
(§3) Q7 or NHF cells were cultured routinely as described herein. For 384-well cell survival assays, cells were seeded in clear bottom, black wall 384-well tissue culture-treated polystyrene plates by re-suspending a cell suspension at a density of 50,000 cells/mL in growth medium, then dispensing 60 microliters of cell suspension per well using either an electronic multichannel pipette or a Multidrop™ Combi Reagent Dispenser (ThermoFisher Scientific), corresponding to 3,000 cells/well. […]

| SMILES | EC50 |
| --- | --- |
| CCC1=C(Cc2ccc(C(F)(F)F)cn2)C(=O)c2cccc(F)c2C1=O [Example 61, 3-ethyl-5-fluoro-2-((5-(trifluoromethyl)pyridin-2-yl)methyl)naphthalene-1,4-dione] | < 0.05 µM |
| CCC1=C(Cc2ccc(C(C)(F)F)cn2)C(=O)c2c(F)ccc(F)c2C1=O [Example 62, 2-((5-(1,1-difluoroethyl)pyridin-2-yl)methyl)-3-ethyl-5,8-difluoronaphthalene-1,4-dione] | < 0.05 µM |
| CCC1=C(Cc2ccc(C(F)(F)F)cn2)C(=O)c2c(ccc(F)c2F)C1=O [Example 63, 2-ethyl-5,6-difluoro-3-((5-(trifluoromethyl)pyridin-2-yl)methyl)naphthalene-1,4-dione] | < 0.05 µM |
| CCC1=C(Cc2ncc(C(F)(F)F)cc2F)C(=O)c2c(F)cc(F)cc2C1=O [Example 64, 2-ethyl-5,7-difluoro-3-((3-fluoro-5-(trifluoromethyl)pyridin-2-yl)methyl)naphthalene-1,4-dione] | < 0.05 µM |
| O=C1C(C2CC2)=C(Cc2ccc(C(F)(F)F)cn2)C(=O)c2c(F)cc(F)cc21 [Example 65, 2-cyclopropyl-5,7-difluoro-3-((5-(trifluoromethyl)pyridin-2-yl)methyl)naphthalene-1,4-dione] | < 0.05 µM |
| CCC1=C(Cc2cc(C(F)(F)F)c(C)cn2)C(=O)c2c(F)ccc(F)c2C1=O [Example 66, 2-ethyl-5,8-difluoro-3-((5-methyl-4-(trifluoromethyl)pyridin-2-yl)methyl)naphthalene-1,4-dione] | < 0.05 µM |
| CCC1=C(Cc2ccc(C(F)F)cn2)C(=O)c2c(F)cc(F)cc2C1=O [Example 67, 3-((5-(difluoromethyl)pyridin-2-yl)methyl)-2-ethyl-5,7-difluoronaphthalene-1,4-dione] | < 0.05 µM |
| CCC1=C(Cc2cccc(OC)n2)C(=O)c2c(F)ccc(F)c2C1=O [Example 89, 2-ethyl-5,8-difluoro-3-((6-methoxypyridin-2-yl)methyl)naphthalene-1,4-dione] | < 0.05 µM |
| O=C1C(Cc2ccc(C(F)(F)F)cn2)=C(CC2COC2)C(=O)c2c(F)ccc(F)c21 [Example 90, 5,8-difluoro-2-(oxetan-3-ylmethyl)-3-((5-(trifluoromethyl)pyridin-2-yl)methyl)naphthalene-1,4-dione] | < 0.05 µM |
| O=C1C(Cc2ccc(C(F)(F)F)cn2)=C(C2CC2)C(=O)c2c(F)ccc(F)c21 [Example 91, 2-cyclopropyl-5,8-difluoro-3-((5-(trifluoromethyl)pyridin-2-yl)methyl)naphthalene-1,4-dione] | < 0.05 µM |
| CCC1=C(Cc2ccc(F)cn2)C(=O)c2c(F)cc(F)cc2C1=O [Example 92, 2-ethyl-5,7-difluoro-3-((5-fluoropyridin-2-yl)methyl)naphthalene-1,4-dione] | < 0.05 µM |
| CCC1=C(Cc2ccc(C(F)(F)F)c(C#N)n2)C(=O)c2c(F)cc(F)cc2C1=O [Example 93, 6-((3-ethyl-6,8-difluoro-1,4-dioxo-1,4-dihydronaphthalen-2-yl)methyl)-3-(trifluoromethyl)picolinonitrile] | < 0.05 µM |
| CCC1=C(Cc2ncc(C(F)(F)F)cc2Cl)C(=O)c2c(F)cc(F)cc2C1=O [Example 94, 3-((3-chloro-5-(trifluoromethyl)pyridin-2-yl)methyl)-2-ethyl-5,7-difluoronaphthalene-1,4-dione] | < 0.05 µM |
| N#Cc1nc(CC2=C(C3CC3)C(=O)c3cc(F)cc(F)c3C2=O)ccc1C(F)(F)F [Example 95, 6-((3-cyclopropyl-6,8-difluoro-1,4-dioxo-1,4-dihydronaphthalen-2-yl)methyl)-3-(trifluoromethyl)picolinonitrile] | < 0.05 µM |
| N#Cc1nc(CC2=C(C3CC3)C(=O)c3cc(F)ccc3C2=O)ccc1C(F)(F)F [Example 96, 6-((3-cyclopropyl-6-fluoro-1,4-dioxo-1,4-dihydronaphthalen-2-yl)methyl)-3-(trifluoromethyl)picolinonitrile] | < 0.05 µM |
| CCC1=C(Cc2ccc(C)c(OC)n2)C(=O)c2c(F)ccc(F)c2C1=O [Example 97, 2-ethyl-5,8-difluoro-3-((6-methoxy-5-methylpyridin-2-yl)methyl)naphthalene-1,4-dione] | < 0.05 µM |
| [2H]C([2H])([2H])C1=C(Cc2ccc(C(F)(F)F)c(C(N)=O)n2)C(=O)c2c(F)ccc(F)c2C1=O [Example 126, 6-((5,8-difluoro-3-(methyl-d3)-1,4-dioxo-1,4-dihydronaphthalen-2-yl)methyl)-3-(trifluoromethyl)picolinamide] | < 0.05 µM |
| [2H]C([2H])([2H])C1=C(Cc2ccc(C(F)(F)F)c(C(=O)O)n2)C(=O)c2c(F)ccc(F)c2C1=O [Example 127, 6-((5,8-difluoro-3-(methyl-d3)-1,4-dioxo-1,4-dihydronaphthalen-2-yl)methyl)-3-(trifluoromethyl)picolinic acid] | 0.05 to 0.25 µM |
| CCC1=C(Cc2ccc(F)c(C#N)n2)C(=O)c2c(F)ccc(F)c2C1=O [Example 132, 6-((3-ethyl-5,8-difluoro-1,4-dioxo-1,4-dihydronaphthalen-2-yl)methyl)-3-fluoropicolinonitrile] | < 0.05 µM |
| CCC1=C(Cc2ccc(CC(F)(F)F)cn2)C(=O)c2c(F)ccc(F)c2C1=O [Example 133, 2-ethyl-5,8-difluoro-3-((5-(2,2,2-trifluoroethyl)pyridin-2-yl)methyl)naphthalene-1,4-dione] | < 0.05 µM |
| CCC1=C(Cc2cc(C(F)(F)F)c(OC)cn2)C(=O)c2c(F)ccc(F)c2C1=O [Example 134, 2-ethyl-5,8-difluoro-3-((5-methoxy-4-(trifluoromethyl)pyridin-2-yl)methyl)naphthalene-1,4-dione] | < 0.05 µM |
| CCC1=C(Cc2cc(C)c(F)cn2)C(=O)c2c(F)ccc(F)c2C1=O [Example 135, 2-ethyl-5,8-difluoro-3-((5-fluoro-4-methylpyridin-2-yl)methyl)naphthalene-1,4-dione] | < 0.05 µM |
| CCC1=C(Cc2ccc(C(F)F)cn2)C(=O)c2c(F)ccc(F)c2C1=O [Example 136, 2-((5-(difluoromethyl)pyridin-2-yl)methyl)-3-ethyl-5,8-difluoronaphthalene-1,4-dione] | < 0.05 µM |

These compounds were tested on Q7 cells (ST HDH Q7/7; immortalized mouse striatal cells) (assay: Q7 Cystine Deprivation cell survival (rescue) assay). Settings: Q7 cells, cystine-free medium, 18 h, Cell Titer Glo, 50% relative viability vs Vitamin K2 (1 micromolar), read-out: Q7 Cystine Deprivation Survival EC50.
Type: cell-based
Excerpt: as §1, §2, §3

| SMILES | EC50 |
| --- | --- |
| CCCC1=C(Cc2cc(C(F)(F)F)c(F)cn2)C(=O)c2ccccc2C1=O [Example 119, 2-((5-fluoro-4-(trifluoromethyl)pyridin-2-yl)methyl)-3-propylnaphthalene-1,4-dione] | < 0.05 µM |
| O=C1C(CCC2COC2)=C(Cc2ccc(F)cn2)C(=O)c2ccccc21 [Example 121, 2-((5-fluoropyridin-2-yl)methyl)-3-(2-(oxetan-3-yl)ethyl)naphthalene-1,4-dione] | < 0.05 µM |
| COC(C1=C(C)C(=O)c2ccccc2C1=O)c1ccc(C(F)(F)F)cn1 (stereo not drawn) [Example 124, 2-(methoxy(5-(trifluoromethyl)pyridin-2-yl)methyl)-3-methylnaphthalene-1,4-dione] | < 0.05 µM |
| O=C1C(O)=C(Cc2ccc(C(F)(F)F)cn2)C(=O)c2ccccc21 [Example 125, 2-hydroxy-3-((5-(trifluoromethyl)pyridin-2-yl)methyl)naphthalene-1,4-dione] | > 1 µM |
